Test results published in patent US20240174690A1, “ANNULATED 2-AMINO-3-CYANO THIOPHENES AND DERIVATIVES FOR THE TREATMENT OF CANCER” (BOEHRINGER INGELHEIM INTERNATIONAL GMBH, priority 2021, published 2024).
≈ marks a conversion by molar mass, not a printed value. Read-outs that look alike come from different tables or passages of the source.

Tests used:
[1] = Solubility measurement (DMSO solution method), McIlvaine buffer pH 4.5 or 6.8; assay type: physicochemical; settings: aqueous buffer, kinetic from dmso stock, DMSO stock diluted to 250 μM, 24 h shaking at ambient temperature
Summary of the method: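 Filtrate concentration by LC-UV, calibrated to a known-concentration reference dissolved completely in acetonitrile/water (1:1). Samples came from 250 µM final dilutions of DMSO stock in pH 4.5 or 6.8 McIlvaine buffer, shaken 24 h at ambient temperature, then filtered.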

NCI-H358 cells = assay: NCI-H358 CTG proliferation assay (120 h) (NSCLC, G12C); assay type: cell-based, human; settings: Homo sapiens
Summary of the method: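 IC50 values derive from four-parameter nonlinear regression of CellTiter-Glo viability (RLU relative to DMSO wells) after 120 h of exposure. Cells were plated in RPMI-1640 + 10% FCS at 2000 per well (assay 1) or 200 per well (assay 2). Untreated cells were measured at compound addition as T0.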

LOVO cells = assay: LOVO CTG proliferation assay (120 h) (CRC, G13D); assay type: cell-based; settings: Homo sapiens, CTG 120 h
Summary of the method: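 IC50 comes from a four-parameter fit of CellTiter-Glo viability, expressed as RLU relative to DMSO wells. Compound exposure lasted 120 h in LOVO cells seeded the day before at 1000 cells/well in DMEM with 10% fetal calf serum.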

[2] = McIlvaine buffer pH 4.5, read-out: solubility pH 4.5
[3] = McIlvaine buffer pH 6.8, read-out: solubility pH 6.8
[4] = assay 2, CTG, read-out: H358 (assay 2) IC50
[5] = assay 1, CTG, read-out: H358 (assay 1) IC50

Row | SMILES | solubility at 24 h [1, 2] | solubility at 24 h [1, 3] | IC50 (NCI-H358 cells; [4]) | IC50 (LOVO cells) | IC50 (NCI-H358 cells; [5])
1 | C[C@H](Oc1cc(-n2cc(C(=O)N(C)C)nn2)nc(-c2noc3c2CCC[C@@]32CCCc3sc(N)c(C#N)c32)n1)[C@@H]1CCCN1C [II-132] | 117 µg/mL (≈ 186 µM) | 100 µg/mL (≈ 159 µM) | 324 nM | 120 nM | –
2 | C[C@H](Oc1cc(-c2cccc(C(N)=O)c2)nc(-c2noc3c2CCC[C@@]32CCCc3sc(N)c(C#N)c32)n1)[C@@H]1CCCN1C [II-133] | 3 µg/mL (≈ 4.92 µM) | < 1 µg/mL | 9 nM | 459 nM | 74 nM
3 | C[C@H]1CNCCCN1c1cc(-c2ccn(C)n2)nc(-c2noc3c2CCC[C@@]32CCCc3sc(N)c(C#N)c32)n1 [II-140] | 82 µg/mL (≈ 148 µM) | 8 µg/mL (≈ 14.4 µM) | 702 nM | 5490 nM | –
4 | C[C@H]1CNCCCN1c1cc(-n2ccnc2)nc(-c2noc3c2CCC[C@@]32CCCc3sc(N)c(C#N)c32)n1 [II-142] | 86 µg/mL (≈ 159 µM) | 10 µg/mL (≈ 18.5 µM) | 10800 nM | 2640 nM | –
5 | C[C@H](Oc1cc(N2CCOC2=O)nc(-c2noc3c2CCC[C@@]32CCCc3sc(N)c(C#N)c32)n1)[C@@H]1CCCN1C [II-143] | > 123 µg/mL | 91 µg/mL (≈ 158 µM) | – | 96 nM | 25 nM
6 | C[C@H](Oc1cc(N2CCNC3(COC3)C2)nc(-c2noc3c2CCC[C@@]32CCCc3sc(N)c(C#N)c32)n1)[C@@H]1C[C@@H](F)CN1C [II-150] | > 149 µg/mL | 57 µg/mL (≈ 89.8 µM) | 115 nM | 81 nM | –
7 | CO[C@@H]1C[C@@H]([C@H](C)Oc2cc(N3CCN(C)C4(CC4)C3)nc(-c3noc4c3CCC[C@@]43CCCc4sc(N)c(C#N)c43)n2)N(C)C1 [II-152] | > 132 µg/mL | 61 µg/mL (≈ 94.6 µM) | 926 nM | 650 nM | –
8 | CO[C@@H]1C[C@@H]([C@H](C)Oc2cc(N3CCN(C)C4(COC4)C3)nc(-c3noc4c3CCC[C@@]43CCCc4sc(N)c(C#N)c43)n2)N(C)C1 [II-153] | > 135 µg/mL | 103 µg/mL (≈ 156 µM) | 2850 nM | 283 nM | –
9 | C[C@H](Oc1cc(-n2cc3c(n2)CNC3)nc(-c2noc3c2CCC[C@@]32CCCc3sc(N)c(C#N)c32)n1)[C@@H]1C[C@@H](F)CN1C [II-154] | > 144 µg/mL | 17 µg/mL (≈ 27.6 µM) | 374 nM | 904 nM | –
10 | C[C@H](Oc1nc(-c2noc3c2CCC[C@@]32CCCc3sc(N)c(C#N)c32)nc(N2CCNC3(CC3)C2)c1F)[C@@H]1C[C@@H](F)CN1C [II-155] | > 153 µg/mL | 3 µg/mL (≈ 4.71 µM) | 77 nM | 107 nM | –
11 | C[C@H](Oc1nc(-c2noc3c2CCC[C@@]32CCCc3sc(N)c(C#N)c32)nc(N2CCNC3(CC3)C2)c1Cl)[C@@H]1C[C@@H](F)CN1C [II-156] | > 142 µg/mL | < 1 µg/mL | 230 nM | 226 nM | –
12 | C[C@H](Oc1nc(-c2noc3c2CCC[C@@]32CCCc3sc(N)c(C#N)c32)nc(N2C[C@H](C)NC3(CC3)C2)c1F)[C@@H]1C[C@@H](F)CN1C [II-157] | > 147 µg/mL | < 1 µg/mL | 151 nM | 136 nM | –
13 | C[C@@H]1CN(c2nc(-c3noc4c3CCC[C@@]43CCCc4sc(N)c(C#N)c43)nc(O[C@@H](C)[C@@H]3C[C@@H](F)CN3C)c2F)CC2(CC2)N1 [II-158] | > 150 µg/mL | < 1 µg/mL | 58 nM | 84 nM | –
14 | COc1c(O[C@@H](C)[C@@H]2CCCN2C)nc(-c2noc3c2CCC[C@@]32CCCc3sc(N)c(C#N)c32)nc1-n1ccc(C(N)=O)n1 [II-159] | 125 µg/mL (≈ 198 µM) | 125 µg/mL (≈ 198 µM) | 31 nM | 356 nM | –
15 | C[C@H](Oc1cc(C2=CCNCC2)nc(-c2noc3c2CCC[C@@]32CCCc3sc(N)c(C#N)c32)n1)[C@@H]1CCCN1C [II-164] | > 164 µg/mL | > 137 µg/mL | 40 nM | 246 nM | –
16 | C[C@H](Oc1cc(N2CCNC3(CC3)C2)nc(-c2noc3c2CCC[C@@]32CCCc3sc(N)c(C#N)c32)n1)[C@@H]1C[C@@H](F)CN1C [II-165] | > 142 µg/mL | 49 µg/mL (≈ 79.2 µM) | 166 nM | 303 nM | –
17 | CC(C)N1CCCN(c2cc(-n3ccnc3)nc(-c3noc4c3CCC[C@@]43CCCc4sc(N)c(C#N)c43)n2)[C@@H](C)C1 [II-169] | > 124 µg/mL | 13 µg/mL (≈ 22.3 µM) | 595 nM | 553 nM | –
18 | CC(C)N1CCCN(c2cc(-c3ccn(C)n3)nc(-c3noc4c3CCC[C@@]43CCCc4sc(N)c(C#N)c43)n2)[C@@H](C)C1 [II-170] | 118 µg/mL (≈ 197 µM) | 24 µg/mL (≈ 40.1 µM) | 623 nM | 270 nM | –
19 | C[C@H](Oc1cc(-n2cc3c(n2)CN(C)C3)nc(-c2noc3c2CCC[C@@]32CCCc3sc(N)c(C#N)c32)n1)[C@@H]1CCCN1C [II-174] | > 149 µg/mL | 115 µg/mL (≈ 188 µM) | 112 nM | 139 nM | –
20 | C[C@H](Oc1nc(-c2noc3c2CCC[C@@]32CCCc3sc(N)c(C#N)c32)nc(N2CCN(C)C3(CC3)C2)c1Cl)[C@@H]1C[C@@H](F)CN1C [II-176] | > 140 µg/mL | < 1 µg/mL | 1640 nM | 2680 nM | –
21 | CC(=O)N1CCN(c2cc(O[C@@H](C)[C@@H]3CCCN3C)nc(-c3noc4c3CCC[C@@]43CCCc4sc(N)c(C#N)c43)n2)CC12CC2 [II-178] | 127 µg/mL (≈ 198 µM) | 110 µg/mL (≈ 171 µM) | 129 nM | 624 nM | –
22 | CC(C)NC(=O)Cc1ccn(-c2cc(O[C@@H](C)[C@@H]3CCCN3C)nc(-c3noc4c3CCC[C@@]43CCCc4sc(N)c(C#N)c43)n2)n1 [II-182] | > 148 µg/mL | 86 µg/mL (≈ 131 µM) | 3 nM | 38 nM | –
23 | CO[C@H]1CCN(C)[C@@H]1[C@H](C)Oc1cc(N2CCNC3(CC3)C2)nc(-c2noc3c2CCC[C@@]32CCCc3sc(N)c(C#N)c32)n1 [II-184] | > 158 µg/mL | > 147 µg/mL | 95 nM | 325 nM | –
24 | CCN1CCN(c2cc(O[C@@H](C)[C@@H]3C[C@@H](F)CN3C)nc(-c3noc4c3CCC[C@@]43CCCc4sc(N)c(C#N)c43)n2)CC12CC2 [II-185] | > 147 µg/mL | 8 µg/mL (≈ 12.4 µM) | 510 nM | 714 nM | –
25 | CO[C@H]1CCN(C)[C@@H]1[C@H](C)Oc1cc(N2CCN(C)C3(CC3)C2)nc(-c2noc3c2CCC[C@@]32CCCc3sc(N)c(C#N)c32)n1 [II-186] | > 140 µg/mL | 22 µg/mL (≈ 34.1 µM) | 273 nM | 357 nM | –
26 | CO[C@@H]1C[C@@H]([C@H](C)Oc2cc(N3CCNC4(CC4)C3)nc(-c3noc4c3CCC[C@@]43CCCc4sc(N)c(C#N)c43)n2)N(C)C1 [II-187] | > 140 µg/mL | 119 µg/mL (≈ 189 µM) | 135 nM | 429 nM | –
27 | C[C@H](Oc1cc(-n2ccc(C3(O)COC3)n2)nc(-c2noc3c2CCC[C@@]32CCCc3sc(N)c(C#N)c32)n1)[C@@H]1CCCN1C [II-189] | > 152 µg/mL | 103 µg/mL (≈ 164 µM) | 19 nM | 39 nM | –
28 | C[C@H](NC(=O)c1ccn(-c2cc(O[C@@H](C)[C@@H]3CCCN3C)nc(-c3noc4c3CCC[C@@]43CCCc4sc(N)c(C#N)c43)n2)n1)c1ccccn1 [II-191] | 73 µg/mL (≈ 104 µM) | 12 µg/mL (≈ 17 µM) | 3 nM | 13 nM | –
29 | C[C@H](Oc1cc(-n2ccc(C(=O)N[C@@H]3CCOC3)n2)nc(-c2noc3c2CCC[C@@]32CCCc3sc(N)c(C#N)c32)n1)[C@@H]1CCCN1C [II-192] | 124 µg/mL (≈ 185 µM) | 59 µg/mL (≈ 88.1 µM) | 2 nM | 32 nM | –
